Assay results reported in patent publication US20250108038A1 (priority 2023, published 2025).
Several values for one entry are separate records, joined by “and”; a condition that tells them apart may be missing. Equal values may be shown once. Where a name gives a salt, the structure may show the parent alone.

System: Long Evans rats
Experiment: Behavioral satiety sequence (BSS)
Format: in vivo, Long Evans rat
Description: The Behavioural Satiety Sequence (BSS) is a technique used to evaluate physiological satiety. It is based on the expression of a sequence of behaviors including eating, grooming, locomotor activity, followed by resting, which are typically observed in rodents post-ingestion (Halford et al, 1998, Pharmacology Biochemistry and Behaviour. 61(2): 159-168). The BSS is a widely used model for determining the effects of novel pharmaceuticals on food intake and measures of satiety in rodents (Oliveira et al, 2011, Revista de Nutrição. 24(4) 619-628), and to discriminate the cause of reduced food intake following pharmacological manipulation. For example, treatments that may reduce food intake by non-specific mechanisms, such as immobility, malaise, and taste adulteration, will disrupt this sequence (Halford et al, 1998, Pharmacology Biochemistry and Behaviour. 61(2): 159-168).
Specifically, 12 male Long-Evans rats were food-deprived for 22 h with a 2 h feeding period each day. Rats were trained to consume daily food during the 2 h period over 25 days. The testing phase was initiated once the rats consistently consumed 16-18 g of food per day with ≤10% variance in amount of feed consumed. Feeding took place in designated individual boxes in a quiet room separate from the housing room. Continuous remote monitoring via video camera during feeding was used to assess the BSS. Food consumption was measured by weighing the total available food before and after the 2 h feeding window, correcting for spillage. Lorcaserin (1 mg/kg) was included as a reference control (Higgins et al, 2011, Neuropsychopharmacology. 37(5): 1177-1191). Subjects were tested using a repeated-measures, Latin square design with 2-3 days wash-out between treatment cycles.
On scheduled test days, animals were monitored remotely via video camera during the feeding access period. The occurrence of four mutually exclusive behaviors (eating/drinking, grooming, active, rest) were individually scored. Over the 2 h feeding period, behaviors were assessed every 30 seconds. Scores were compiled into 23 5 min timebins (timebin 24 was removed due to early removal of animals) and the frequency of each behavior within each timebin was calculated to determine a temporal frequency of each measure (Rodgers et al, 2010, Pharmacology Biochemistry and Behaviour. 97: 3-14). Percentage time was plotted for each behavioral sequence in each timebin to compare between treatment groups (Higgins et al, 2011, Neuropsychopharmacology. 37(5): 1177-1191).

[1] = Lorcaserin 1 mg/kg, AVG of animals LT-1 to LT-12, 0-0.5 hours
[2] = Lorcaserin 1 mg/kg, raw data per animal LT-1 to LT-12, 0-0.5 hours, hydrochloride
[3] = lorcaserin 1 mg/kg, AVG of animals LT-1 to LT-12
[4] = lorcaserin 1 mg/kg, raw score per animal (LT-1 to LT-12), hydrochloride

C[C@H]1CNCCc2ccc(Cl)cc21 [lorcaserin, Lorcaserin hydrochloride, reference compound]
BSS scoring R (resting), Time Bin 12 (55-60 TOTAL) (Lorcaserin 1 mg/kg s.c., raw score per animal, hydrochloride): 0 (10×) and 1 (2×)
BSS scoring A (active), Time Bin 1 (0-5 TOTAL), AVG [1]: 0.17
BSS scoring A (active), Time Bin 2 (5-10 TOTAL), AVG [1]: 0.08
BSS scoring A (active), Time Bin 3 (10-15 TOTAL), AVG [1]: 0.09
BSS scoring A (active), Time Bin 4 (15-20 TOTAL), AVG [1]: 0.10
BSS scoring A (active), Time Bin 5 (20-25 TOTAL), AVG [1]: 0.18
BSS scoring A (active), Time Bin 6 (25-30 TOTAL), AVG [1]: 0.15
BSS scoring E (eating/drinking), Time Bin 1 (0-5 TOTAL), AVG [1]: 0.75
BSS scoring E (eating/drinking), Time Bin 2 (5-10 TOTAL), AVG [1]: 0.83
BSS scoring E (eating/drinking), Time Bin 3 (10-15 TOTAL), AVG [1]: 0.78
BSS scoring E (eating/drinking), Time Bin 4 (15-20 TOTAL), AVG [1]: 0.78
BSS scoring E (eating/drinking), Time Bin 5 (20-25 TOTAL), AVG [1]: 0.71
BSS scoring E (eating/drinking), Time Bin 6 (25-30 TOTAL), AVG [1]: 0.75
BSS scoring G (grooming), Time Bin 1 (0-5 TOTAL), AVG [1]: 0.08
BSS scoring G (grooming), Time Bin 2 (5-10 TOTAL), AVG [1]: 0.09
BSS scoring G (grooming), Time Bin 3 (10-15 TOTAL), AVG [1]: 0.10
BSS scoring G (grooming), Time Bin 4 (15-20 TOTAL), AVG [1]: 0.09
BSS scoring G (grooming), Time Bin 5 (20-25 TOTAL), AVG [1]: 0.12
BSS scoring G (grooming), Time Bin 6 (25-30 TOTAL), AVG [1]: 0.05
BSS scoring R (resting), Time Bin 1 (0-5 TOTAL), AVG [1]: 0.01
BSS scoring R (resting), Time Bin 2 (5-10 TOTAL), AVG [1]: 0.01
BSS scoring R (resting), Time Bin 3 (10-15 TOTAL), AVG [1]: 0.02
BSS scoring R (resting), Time Bin 4 (15-20 TOTAL), AVG [1]: 0.03
BSS scoring R (resting), Time Bin 5 (20-25 TOTAL), AVG [1]: 0.00
BSS scoring R (resting), Time Bin 6 (25-30 TOTAL), AVG [1]: 0.05
BSS scoring R (resting), Time Bin 5 (20-25 TOTAL) (Lorcaserin 1 mg/kg, raw data per animal LT-1 to LT-12, 0-0.5 hours): 0
BSS scoring A (active), Time Bin 1 (0-5 TOTAL) [2]: 3 (3×) and 2 (4×) and 1 (3×) and 0 (2×)
BSS scoring A (active), Time Bin 2 (5-10 TOTAL) [2]: 1 (3×) and 0 (6×) and 2 (3×)
BSS scoring A (active), Time Bin 3 (10-15 TOTAL) [2]: 1 (7×) and 0 (3×) and 2 (2×)
BSS scoring A (active), Time Bin 4 (15-20 TOTAL) [2]: 3 (3×) and 1 (3×) and 0 (6×)
BSS scoring A (active), Time Bin 5 (20-25 TOTAL) [2]: 0 (3×) and 1 (3×) and 3 (2×) and 4 (2×) and 2 (2×)
BSS scoring A (active), Time Bin 6 (25-30 TOTAL) [2]: 2 (2×) and 0 (4×) and 1 (4×) and 7 and 3
BSS scoring E (eating/drinking), Time Bin 1 (0-5 TOTAL) [2]: 7 (4×) and 6 (3×) and 8 (2×) and 10 and 9 (2×)
BSS scoring E (eating/drinking), Time Bin 2 (5-10 TOTAL) [2]: 6 (2×) and 9 (4×) and 8 (3×) and 7 and 10 (2×)
BSS scoring E (eating/drinking), Time Bin 3 (10-15 TOTAL) [2]: 8 (6×) and 5 and 7 and 6 and 10 and 9 (2×)
BSS scoring E (eating/drinking), Time Bin 4 (15-20 TOTAL) [2]: 7 (3×) and 8 and 6 (3×) and 10 and 9 (4×)
BSS scoring E (eating/drinking), Time Bin 5 (20-25 TOTAL) [2]: 9 (2×) and 8 (4×) and 7 (3×) and 4 (2×) and 6
BSS scoring E (eating/drinking), Time Bin 6 (25-30 TOTAL) [2]: 7 (2×) and 9 (4×) and 10 and 8 (3×) and 1 and 5
BSS scoring G (grooming), Time Bin 1 (0-5 TOTAL) [2]: 0 (4×) and 2 and 1 (7×)
BSS scoring G (grooming), Time Bin 2 (5-10 TOTAL) [2]: 3 and 1 (4×) and 0 (5×) and 2 (2×)
BSS scoring G (grooming), Time Bin 3 (10-15 TOTAL) [2]: 1 (4×) and 2 (4×) and 0 (4×)
BSS scoring G (grooming), Time Bin 4 (15-20 TOTAL) [2]: 0 (4×) and 1 (5×) and 2 (3×)
BSS scoring G (grooming), Time Bin 5 (20-25 TOTAL) [2]: 1 (3×) and 2 (4×) and 0 (4×) and 3
BSS scoring G (grooming), Time Bin 6 (25-30 TOTAL) [2]: 0 (7×) and 1 (4×) and 2
BSS scoring R (resting), Time Bin 1 (0-5 TOTAL) [2]: 0 (11×) and 1
BSS scoring R (resting), Time Bin 2 (5-10 TOTAL) [2]: 0 (11×) and 1
BSS scoring R (resting), Time Bin 3 (10-15 TOTAL) [2]: 0 (10×) and 1 (2×)
BSS scoring R (resting), Time Bin 4 (15-20 TOTAL) [2]: 0 (8×) and 1 (4×)
BSS scoring R (resting), Time Bin 6 (25-30 TOTAL) [2]: 1 (3×) and 0 (8×) and 3
BSS scoring A (active), Time Bin 19 (90-95 TOTAL), AVG [3]: 0.10
BSS scoring A (active), Time Bin 20 (95-100 TOTAL), AVG [3]: 0.08
BSS scoring A (active), Time Bin 21 (100-105 TOTAL), AVG [3]: 0.06
BSS scoring A (active), Time Bin 22 (105-110 TOTAL), AVG [3]: 0.02
BSS scoring A (active), Time Bin 23 (110-115 TOTAL), AVG [3]: 0.06
BSS scoring A (active), Time Bin 24 (115-120 TOTAL), AVG [3]: 0.10
BSS scoring E (eating/drinking), Time Bin 19 (90-95 TOTAL), AVG [3]: 0.77
BSS scoring E (eating/drinking), Time Bin 20 (95-100 TOTAL), AVG [3]: 0.75
BSS scoring E (eating/drinking), Time Bin 21 (100-105 TOTAL), AVG [3]: 0.84
BSS scoring E (eating/drinking), Time Bin 22 (105-110 TOTAL), AVG [3]: 0.84
BSS scoring E (eating/drinking), Time Bin 23 (110-115 TOTAL), AVG [3]: 0.75
BSS scoring E (eating/drinking), Time Bin 24 (115-120 TOTAL), AVG [3]: 0.58
BSS scoring G (grooming), Time Bin 19 (90-95 TOTAL), AVG [3]: 0.04
BSS scoring G (grooming), Time Bin 20 (95-100 TOTAL), AVG [3]: 0.05
BSS scoring G (grooming), Time Bin 21 (100-105 TOTAL), AVG [3]: 0.05
BSS scoring G (grooming), Time Bin 22 (105-110 TOTAL), AVG [3]: 0.01
BSS scoring G (grooming), Time Bin 23 (110-115 TOTAL), AVG [3]: 0.08
BSS scoring G (grooming), Time Bin 24 (115-120 TOTAL), AVG [3]: 0.07
BSS scoring R (resting), Time Bin 19 (90-95 TOTAL), AVG [3]: 0.09
BSS scoring R (resting), Time Bin 20 (95-100 TOTAL), AVG [3]: 0.12
BSS scoring R (resting), Time Bin 21 (100-105 TOTAL), AVG [3]: 0.05
BSS scoring R (resting), Time Bin 22 (105-110 TOTAL), AVG [3]: 0.13
BSS scoring R (resting), Time Bin 23 (110-115 TOTAL), AVG [3]: 0.11
BSS scoring R (resting), Time Bin 24 (115-120 TOTAL), AVG [3]: 0.08
BSS scoring A (active), Time Bin 19 (90-95 TOTAL) [4]: 2 (3×) and 0 (7×) and 3 (2×)
BSS scoring A (active), Time Bin 20 (95-100 TOTAL) [4]: 0 (7×) and 1 (2×) and 4 and 2 (2×)
BSS scoring A (active), Time Bin 21 (100-105 TOTAL) [4]: 0 (7×) and 1 (4×) and 3
BSS scoring A (active), Time Bin 22 (105-110 TOTAL) [4]: 0 (11×) and 2
BSS scoring A (active), Time Bin 23 (110-115 TOTAL) [4]: 0 (6×) and 1 (5×) and 2
BSS scoring A (active), Time Bin 24 (115-120 TOTAL) [4]: 0 (8×) and 6 and 1 and 3 and 2
BSS scoring E (eating/drinking), Time Bin 19 (90-95 TOTAL) [4]: 8 and 9 (3×) and 5 (2×) and 10 (2×) and 7 (3×) and 6
BSS scoring E (eating/drinking), Time Bin 20 (95-100 TOTAL) [4]: 9 (5×) and 8 and 0 and 10 (2×) and 4 and 6 and 7
BSS scoring E (eating/drinking), Time Bin 21 (100-105 TOTAL) [4]: 8 (4×) and 9 (2×) and 7 (3×) and 10 (3×)
BSS scoring E (eating/drinking), Time Bin 22 (105-110 TOTAL) [4]: 7 and 8 (4×) and 9 (3×) and 10 (3×) and 5
BSS scoring E (eating/drinking), Time Bin 23 (110-115 TOTAL) [4]: 6 (5×) and 8 (3×) and 9 (4×)
BSS scoring E (eating/drinking), Time Bin 24 (115-120 TOTAL) [4]: 10 (2×) and 9 and 0 (2×) and 7 (2×) and 4 (2×) and 5 and 6 and 8
BSS scoring G (grooming), Time Bin 19 (90-95 TOTAL) [4]: 0 (9×) and 3 and 1 (2×)
BSS scoring G (grooming), Time Bin 20 (95-100 TOTAL) [4]: 0 (7×) and 1 (4×) and 2
BSS scoring G (grooming), Time Bin 21 (100-105 TOTAL) [4]: 0 (7×) and 1 (4×) and 2
BSS scoring G (grooming), Time Bin 22 (105-110 TOTAL) [4]: 0 (11×) and 1
BSS scoring G (grooming), Time Bin 23 (110-115 TOTAL) [4]: 4 and 2 (2×) and 0 (7×) and 1 (2×)
BSS scoring G (grooming), Time Bin 24 (115-120 TOTAL) [4]: 0 (7×) and 2 (3×) and 1 (2×)
BSS scoring R (resting), Time Bin 19 (90-95 TOTAL) [4]: 0 (6×) and 1 (3×) and 3 (2×) and 2
BSS scoring R (resting), Time Bin 20 (95-100 TOTAL) [4]: 1 (5×) and 0 (5×) and 7 and 2
BSS scoring R (resting), Time Bin 21 (100-105 TOTAL) [4]: 2 and 0 (9×) and 3 and 1
BSS scoring R (resting), Time Bin 22 (105-110 TOTAL) [4]: 3 (2×) and 2 (4×) and 0 (4×) and 1 (2×)
BSS scoring R (resting), Time Bin 23 (110-115 TOTAL) [4]: 0 (3×) and 1 (6×) and 2 (2×) and 3
BSS scoring R (resting), Time Bin 24 (115-120 TOTAL) [4]: 0 (7×) and 1 (2×) and 4 and 2 (2×)
